Reference: patent US9546153B2, “Bicyclic heterocycle substituted pyridyl compounds useful as kinase modulators” (BRISTOL-MYERS SQUIBB COMPANY, priority 2012, dated 2017)
Where two headings read alike, the source gives them in different places.

Experiments:
IRAK4 = IRAK4 (Homo sapiens (Human), UniProt Q9NWZ3); experiment: IRAK4 Inhibition Assay; format: biochemical; settings: ATP 500 μM; IRAK4 0.6 nM; 60 min at room temperature
Description: The assays were performed in U-bottom 384-well plates. […] The reaction was initiated by the combination of IRAK4 with substrates and test compounds. The reaction was incubated at room temperature for 60 min. and terminated by adding 45 μL of 35 mM EDTA to each sample. The reaction mixture was analyzed on the Caliper LABCHIP® 3000 (Caliper, Hopkinton, Mass.) by electrophoretic separation of the fluorescent substrate and phosphorylated product.

[1] = system: TLR2 induced IL-6 in peripheral blood mononuclear cells (PBMCs); experiment: PBMC TLR2 Induced IL-6 Assay; format: cell-based, human; settings: human PBMCs, 10 μg/ml lipoteichoic acid for 5 hours, IL-6 by ELISA, value without asterisk, read-out: Cell IC50
Procedure, shortened: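 Human PBMCs (250000 cells/well) in RPMI with 10% heat-inactivated FCS pre-treated with compound for 30 min at 37° C, then stimulated 5 h with 10 μg/ml lipoteichoic acid. Supernatant IL-6 measured by ELISA and reported as IC50 or EC50.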

IRAK4, sequence (Q9NWZ3 whole entry, species assumed): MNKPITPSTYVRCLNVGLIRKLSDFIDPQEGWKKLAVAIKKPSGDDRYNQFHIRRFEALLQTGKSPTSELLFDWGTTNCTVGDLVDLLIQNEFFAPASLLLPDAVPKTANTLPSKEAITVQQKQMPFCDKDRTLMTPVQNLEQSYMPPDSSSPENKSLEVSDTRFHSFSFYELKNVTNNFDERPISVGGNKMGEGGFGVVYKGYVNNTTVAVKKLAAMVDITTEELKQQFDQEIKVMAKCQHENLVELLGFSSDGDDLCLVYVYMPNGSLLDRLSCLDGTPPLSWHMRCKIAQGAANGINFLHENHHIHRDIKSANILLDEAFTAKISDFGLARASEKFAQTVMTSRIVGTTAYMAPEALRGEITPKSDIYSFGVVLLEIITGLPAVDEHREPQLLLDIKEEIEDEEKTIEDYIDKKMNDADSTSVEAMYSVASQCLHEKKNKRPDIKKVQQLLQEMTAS

IC50 (IRAK4) [nM] | Structure (SMILES) | IC50 ([1]; Homo sapiens, PBMC, 5 h) [nM] | IC50 [1] [nM]
2.6 | CC(C)(O)[C@H](F)CNC(=O)c1cnc(Nc2ccc3ncsc3c2)cc1NCCC1CC1 [Example 129] | 143 | 
2.6 | CC(C)Nc1cc(Nc2ccc3ncoc3c2)ncc1C(=O)NC[C@@H](F)C(C)(C)O [Example 130] | 231 | 
2 | CC(C)(O)[C@H](F)CNC(=O)c1cnc(Nc2ccc3ncsc3c2)cc1NC12CCC(O)(CC1)C2 [Example 133] | 230 | 
8.8 | CC(C)(F)CNc1cc(Nc2ccc3ncccc3n2)ncc1C(=O)NC[C@@H](F)C(C)(C)O [Example 134] | 447 | 
3.6 | CCC(C)Nc1cc(Nc2ccc3ncsc3c2)ncc1C(=O)NC[C@@H](F)C(C)(C)O (stereo partly shown) [Example 137] | 528 | 
1.9 | CCC(C)Nc1cc(Nc2ccc3ncsc3c2)ncc1C(=O)NC[C@@H](F)C(C)(C)O (stereo partly shown) [Example 138] |  | 302
3.1 | CC(=O)NC12CCC(Nc3cc(Nc4ccc5ncsc5c4)ncc3C(=O)NC[C@@H](F)C(C)(C)O)(CC1)C2 [Example 139] | 310 | 
2.3 | CC(C)(O)[C@H](F)CNC(=O)c1cnc(Nc2ccc3ncsc3c2)cc1NC12CCC(N)(CC1)C2 [Example 140] | 219 | 
2.2 | CC(C)(O)[C@H](F)CNC(=O)c1cnc(Nc2ccn3nccc3n2)cc1NC12CCC(O)(CC1)C2 [Example 141] | 279 | 
7.4 | CCNC(=O)c1cnc(Nc2ccc3ncsc3c2)cc1N[C@@H](c1ccccc1)[C@H](O)CO [Example 144] | 199 | 
3.8 | CN1CCCC1CCNC(=O)c1cnc(Nc2ccc3ncsc3c2)cc1NC1CCCC1 (stereo not shown) [Example 149] | 386 | 
5.9 | O=C(NC[C@@H](F)CO)c1cnc(Nc2ccc3ncsc3c2)cc1NC1CCCC1 [Example 150] | 395 | 
4.2 | O=C(NCCN1CCCC1)c1cnc(Nc2ccc3ncsc3c2)cc1NC1CCCC1 [Example 151] | 191 | 
7.5 | CC(=O)NCCNC(=O)c1cnc(Nc2ccc3ncsc3c2)cc1NC1CCCC1 [Example 152] | 596 | 
6.8 | O=C(NCCN1CCOCC1)c1cnc(Nc2ccc3ncsc3c2)cc1NC1CCCC1 [Example 154] | 535 | 
9.9 | O=C(Nc1ccc(Cn2cncn2)cc1)c1cnc(Nc2ccc3ncsc3c2)cc1NC1CCCC1 [Example 156] | 502 | 
4.2 | O=C(NC1CCC(O)CC1)c1cnc(Nc2ccc3ncsc3c2)cc1NC1CCCC1 (stereo not shown) [Example 157] | 836 | 
3.2 | CCCNc1cc(Nc2ccc3ncsc3c2)ncc1C(=O)NC[C@@H](F)C(C)(C)O [Example 159] | 146 | 
4.8 | CCCCNc1cc(Nc2ccc3ncsc3c2)ncc1C(=O)NC[C@@H](F)C(C)(C)O [Example 160] | 109 | 
17.9 | CC(C)(O)[C@H](F)CNC(=O)c1cnc(Nc2ccc3ncsc3c2)cc1NCCO [Example 161] | 577 | 
3.6 | CC(C)CNc1cc(Nc2ccc3ncsc3c2)ncc1C(=O)NC[C@@H](F)C(C)(C)O [Example 162] | 48 | 
34.9 | CC(C)(O)[C@H](F)CNC(=O)c1cnc(Nc2ccc3ncsc3c2)cc1NCCN1CCOCC1 [Example 164] | 388 | 
9 | CC(C)(O)[C@H](F)CNC(=O)c1cnc(Nc2ccc3ncsc3c2)cc1NCCc1ccccc1 [Example 165] | 386 | 
8.4 | Cc1ccccc1CNc1cc(Nc2ccc3ncsc3c2)ncc1C(=O)NC[C@@H](F)C(C)(C)O [Example 166] | 266 | 
9.8 | CC(C)(O)[C@H](F)CNC(=O)c1cnc(Nc2ccc3ncsc3c2)cc1NCc1ccc(Cl)cc1 [Example 167] | 526 | 
13.4 | COc1ccc(CNc2cc(Nc3ccc4ncsc4c3)ncc2C(=O)NC[C@@H](F)C(C)(C)O)cc1 [Example 168] | 565 | 
